Patent publication US20140011799A1 (Bristol-Myers Squibb Company, priority 2012, published 2014)

Tests used:
Endothelial lipase (EL) = molecular target: T1, Endothelial lipase (EL) (Homo sapiens, UniProt Q9Y5X9); assay: Endothelial lipase (EL) enzymatic assay, fluorescent substrate A10070 in DMPG vesicles; type: biochemical; details: EL from conditioned media of HT-1080 cells; compound preincubated 30 min at 37° C; read-out: EL IC50
T1 construct: HT-1080 cells that were transformed using RAGE technology (Athersys) to overexpress endogenous EL; endogenous in cells; conditioned medium used
T1 sequence (Q9Y5X9 21-500): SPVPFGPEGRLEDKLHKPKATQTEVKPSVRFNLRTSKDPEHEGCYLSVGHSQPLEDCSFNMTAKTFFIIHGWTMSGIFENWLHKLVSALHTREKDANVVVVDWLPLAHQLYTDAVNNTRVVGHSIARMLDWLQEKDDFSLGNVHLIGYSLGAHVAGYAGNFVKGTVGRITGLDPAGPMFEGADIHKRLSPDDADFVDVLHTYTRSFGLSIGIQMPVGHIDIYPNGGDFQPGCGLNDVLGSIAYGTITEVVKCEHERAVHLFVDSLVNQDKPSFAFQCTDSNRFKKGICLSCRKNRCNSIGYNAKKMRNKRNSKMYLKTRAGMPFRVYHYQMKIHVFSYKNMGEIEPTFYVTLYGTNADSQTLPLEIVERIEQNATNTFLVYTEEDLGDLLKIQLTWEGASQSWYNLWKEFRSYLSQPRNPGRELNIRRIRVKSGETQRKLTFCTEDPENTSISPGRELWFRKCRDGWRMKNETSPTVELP
In short: (§1)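 EL from conditioned medium of HT-1080 cells engineered to overexpress endogenous EL; HL partially purified from conditioned medium of HL-overexpressing COS cells. Enzyme preincubated with compound 30 min at 37° C in 50 mM HEPES pH 8.0, 50 mM NaCl, 1 mM CaCl2; DMPG vesicles carrying FRET substrate (0.11 mole fraction) then added.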

hepatic lipase (HL) = molecular target: T2, hepatic lipase (HL) (Homo sapiens, UniProt P11150); assay: Hepatic lipase (HL) enzymatic assay, fluorescent substrate A10070 in DMPG vesicles; type: biochemical; details: HL partially purified from conditioned media of COS cells; compound preincubated 30 min at 37° C; read-out: HL IC50
T2 construct: made in house; host or cells: COS cells (conditioned medium, partially purified)
T2 sequence (P11150 23-499): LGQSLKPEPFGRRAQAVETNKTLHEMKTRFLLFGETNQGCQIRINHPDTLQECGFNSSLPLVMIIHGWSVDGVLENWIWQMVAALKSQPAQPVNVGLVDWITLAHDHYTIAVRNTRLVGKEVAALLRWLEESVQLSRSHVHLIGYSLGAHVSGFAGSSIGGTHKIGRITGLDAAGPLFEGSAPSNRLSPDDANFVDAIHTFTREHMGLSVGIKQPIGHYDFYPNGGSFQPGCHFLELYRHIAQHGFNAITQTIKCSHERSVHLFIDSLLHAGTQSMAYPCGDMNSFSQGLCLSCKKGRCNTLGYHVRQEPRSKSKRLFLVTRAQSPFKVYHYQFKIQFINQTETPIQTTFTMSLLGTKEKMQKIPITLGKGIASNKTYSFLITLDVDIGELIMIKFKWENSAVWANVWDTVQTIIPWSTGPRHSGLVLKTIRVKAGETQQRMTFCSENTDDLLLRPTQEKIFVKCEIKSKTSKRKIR
In short: as §1

IC50 (Endothelial lipase (EL)) [nM]	IC50 (hepatic lipase (HL)) [nM]	SMILES
3	5	CS(=O)(=O)C(c1nnc(CNS(N)(=O)=O)o1)c1nc2ccc(-c3cccc(C(=O)NC4CCC4)c3)cc2s1 (centres unmarked) [Example 261, N-cyclobutyl-3-{2-[methanesulfonyl({5-[(sulfamoylamino)methyl]-1,3,4-oxadiazol-2-yl})methyl]-1,3-benzothiazol-6-yl}benzamide]
14	45	COCCNC(=O)c1cccc(-c2ccc3nc(C(c4nnc(CNS(N)(=O)=O)o4)S(C)(=O)=O)sc3c2)c1 (centres unmarked) [Example 262, 3-{2-[methanesulfonyl({5-[(sulfamoylamino)methyl]-1,3,4-oxadiazol-2-yl})methyl]-1,3-benzothiazol-6-yl}-N-(2-methoxyethyl) benzamide]
4	26	CS(=O)(=O)C(c1nnc(CNS(N)(=O)=O)o1)c1nc2ccc(-c3cccc(C(=O)Nc4cccnc4)c3)cc2s1 (centres unmarked) [Example 263, 3-{2-[methanesulfonyl({5-[(sulfamoylamino)methyl]-1,3,4-oxadiazol-2-yl})methyl]-1,3-benzothiazol-6-yl}-N-(pyridin-3-yl) benzamide]
19	37	CS(=O)(=O)C(c1nnc(CNS(N)(=O)=O)o1)c1nc2ccc(-c3cccc(C(=O)N4CCC4)c3)cc2s1 (centres unmarked) [Example 264, N-{[5-({6-[3-(azetidine-1-carbonyl)phenyl]-1,3-benzothiazol-2-yl} (methanesulfonyl)methyl)-1,3,4-oxadiazol-2-yl]methyl}aminosulfonamide]
6	19	C#CCNC(=O)c1cccc(-c2ccc3nc(C(c4nnc(CNS(N)(=O)=O)o4)S(C)(=O)=O)sc3c2)c1 (centres unmarked) [Example 265, 3-{2-[methanesulfonyl({5-[(sulfamoylamino)methyl]-1,3,4-oxadiazol-2-yl})methyl]-1,3-benzothiazol-6-yl}-N-(prop-2-yn-1-yl) benzamide]
13	94	CS(=O)(=O)C(c1nnc(CNS(N)(=O)=O)o1)c1nc2ccc(-c3cccc(C(=O)N4CC[C@H](O)C4)c3)cc2s1 (stereo partly drawn) [Example 266, N-({5-[(6-{3-[(3S)-3-hydroxypyrrolidine-1-carbonyl]phenyl}-1,3-benzothiazol-2-yl) (methanesulfonyl)methyl]-1,3,4-oxadiazol-2-yl}methyl)aminosulfonamide]
14	41	COC1CN(C(=O)c2cccc(-c3ccc4nc(C(c5nnc(CNS(N)(=O)=O)o5)S(C)(=O)=O)sc4c3)c2)C1 (centres unmarked) [Example 267, N-({5-[methanesulfonyl({6-[3-(3-methoxyazetidine-1-carbonyl)phenyl]-1,3-benzothiazol-2-yl})methyl]-1,3,4-oxadiazol-2-yl}methyl)aminosulfonamide]
